Source: ChEMBL document CHEMBL1177745, “Isolation, characterization, and bioactivity of cyclotides from the Micronesian plant Psychotria leptothyrsa” (J Nat Prod, 2010)

Tested on: U-937/GTB
Experiment: Cytotoxicity against human U937/GTB cells by fluorometric microculture cytotoxicity assay
Type: functional, cell-based

Row | SMILES | IC50 [µM]
1 | CC[C@@H](C)[C@@H]1NC(=O)[C@@H]2CSSC[C@@H]3NC(=O)[C@H](C(C)C)NC(=O)[C@H](CCCCN)NC(=O)[C@H](CC(N)=O)NC(=O)[C@@H](CCCCN)NC(=O)[C@@H]4CSSC[C@H](NC(=O)[C@H](CO)NC(=O)[C@H](CCC(=O)O)NC(=O)CNC(=O)[C@H](CSSC[C@H](NC(=O)CNC(=O)[C@H](CC(C)C)NC(=O)[C@H](C(C)C)NC(=O)[C@H](CO)NC(=O)[C@H](CO)NC1=O)C(=O)N[C@@H](CO)C(=O)N4)NC(=O)[C@@H]1CCCN1C(=O)[C@H]([C@H](C)CC)NC(=O)[C@H](C(C)C)NC(=O)CNC(=O)[C@H](CC(=O)O)NC(=O)[C@H](CCCNC(=N)N)NC(=O)[C@H](Cc1ccc(O)cc1)NC3=O)C(=O)N[C@@H](C(C)C)C(=O)N[C@@H](Cc1ccccc1)C(=O)N[C@@H]([C@@H](C)CC)C(=O)N1CCC[C@H]1C(=O)N2 | 3.5
2 | CC[C@H](C)[C@@H]1NC(=O)CNC(=O)[C@@H](CC(N)=O)NC(=O)[C@H](Cc2ccccc2)NC(=O)[C@H](Cc2ccc(O)cc2)NC(=O)[C@@H]2CSSC[C@@H]3NC(=O)CNC(=O)[C@H](CC(C)C)NC(=O)[C@H](Cc4ccccc4)NC(=O)[C@H](C(C)C)NC(=O)[C@H]4CSSC[C@H](NC(=O)[C@H](CO)NC(=O)[C@H](CSSC[C@H](NC(=O)[C@H](C)NC1=O)C(=O)NCC(=O)N[C@@H](CCC(=O)O)C(=O)N[C@@H](CO)C(=O)N4)NC(=O)CNC(=O)[C@@H]1CCCN1C(=O)[C@H]([C@@H](C)CC)NC(=O)[C@H](Cc1ccccc1)NC3=O)C(=O)N[C@@H](CCCCN)C(=O)N[C@@H](CO)C(=O)N[C@@H](CCCCN)C(=O)N[C@@H](C(C)C)C(=O)N2 [PSYLE A] | 26
